This passage reports IC50 and DC50 results from patent US11352350B2, “IRAK degraders and uses thereof” (Kymera Therapeutics, Inc., priority 2018, dated 2022).

Structures are written as SMILES. Like-named read-outs stand apart in the source and are kept apart here.

Assay [1] relates to OCI-LY10. Kind of assay: CTG Cell Viability Assay - OCI-LY10. Format: cell-based, human. The note with it: Homo sapiens, OCI-Ly10, 96 h, OCI-LY10, 4 days; read-out: CTG Cell Viability Assay - OCI-LY10: Average external-IC50. The method in brief: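 OCI-LY10 cells exposed to 9-dose, 1:3 dilutions from 10 μM top (0.2% DMSO) for 4 days at 37° C, 5% CO2. Viability by CellTiter-Glo luminescence; IC50 from three-parameter logistic fit.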

Assay [2] concerns the target IRAK4 (Homo sapiens (Human), UniProt Q9NWZ3). Briefly: IRAK4 MSD degradation in OCI-LY10. Format: cell-based. The method in brief:
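OCI-LY10 cells treated with 8-point 1:3 dilutions (top 1 to 10 μM final) for 4 to 24 h at 37° C. Lysate IRAK4 measured by MSD sandwich immunoassay (2H9 capture, Y279 detection, SULFO-TAG anti-rabbit). DC50 from three-parameter logistic fit.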

The mark [3] stands for this setting: OCI-LY10, 4 hrs, MSD, read-out: IRAK4 MSD degradation in OCI-LY10 at 4 hrs: Average external-Abs DC50.
Where [4] appears, read: OCI-LY10, 24 hrs, MSD, read-out: IRAK4 MSD degradation in OCI-LY10 at 24 hrs: Average external-Abs DC50.
[5] abbreviates: OCI-LY10, 4 hrs, read-out: IRAK4 MSD degradation in OCI-LY10 at 4 hrs: DC50.
Where [6] appears, read: OCI-LY10, 24 hrs, read-out: IRAK4 MSD degradation in OCI-LY10 at 24 hrs: DC50.

For orientation: IC50 means the concentration at which inhibition is half-maximal. Broadly, the DC50 is the concentration at which degradation of the target reaches its halfway point.

Sequence of IRAK4 (Q9NWZ3 whole entry): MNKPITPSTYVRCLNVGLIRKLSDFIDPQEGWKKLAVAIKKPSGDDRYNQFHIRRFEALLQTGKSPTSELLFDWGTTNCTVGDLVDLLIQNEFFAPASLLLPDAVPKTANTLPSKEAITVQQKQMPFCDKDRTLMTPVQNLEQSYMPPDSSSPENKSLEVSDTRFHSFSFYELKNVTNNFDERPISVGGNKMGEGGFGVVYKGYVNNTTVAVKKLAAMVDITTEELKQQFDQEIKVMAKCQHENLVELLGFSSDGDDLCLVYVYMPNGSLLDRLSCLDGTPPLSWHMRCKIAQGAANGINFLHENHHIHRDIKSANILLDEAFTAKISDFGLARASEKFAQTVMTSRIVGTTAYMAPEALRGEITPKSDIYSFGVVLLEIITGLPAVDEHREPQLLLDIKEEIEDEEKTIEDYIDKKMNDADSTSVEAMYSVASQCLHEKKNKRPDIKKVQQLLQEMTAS

In the case of `NC[C@H]1CC[C@H](n2cc(NC(=O)c3coc(-c4ccnc(NCC5CC5)c4)n3)c(C(F)F)n2)CC1` [I-312, N-[1-[4-(aminomethyl)cyclohexyl]-3-(difluoromethyl)pyrazol-4-yl]-2-[2-(cyclopropylmethylamino)-4-pyridyl]oxazole-4-carboxamide], the IC50 in assay [1] was above 1000 nM. The DC50 in assay [2] (setting [3]) and in assay [2] (setting [4]) was above 1000 nM in each case.
In the case of `CN(CCc1ccc(CCNc2cccc3c2C(=O)N(C2CCC(=O)NC2=O)C3=O)cc1)C[C@H]1CC[C@H](n2cc(NC(=O)c3cnn4ccc(N5C[C@H]6C[C@@H]5CO6)nc34)c(C(F)F)n2)CC1` (some centres unmarked) [I-336], in assay [1], the IC50 was in the range of 50 to 100 nM. For the same compound, the DC50 in assay [2] (setting [3]) is 100 to 1000 nM; in assay [2] (setting [4]), 10 to 100 nM.
Take `Cn1c(=O)n(C2CCC(=O)NC2=O)c2cccc(CCCOC3CCN(C(=O)[C@H]4CC[C@H](n5cc(NC(=O)c6cnn7ccc(N8CCOCC8)nc67)c(C(F)F)n5)CC4)CC3)c21` (some centres unmarked) [I-149]: the IC50 in assay [1] is above 1000 nM. The half-maximal degradation concentration (DC50) in assay [2] (setting [3]) was below 10 nM.
On the same counts, the results for `CN(C[C@H]1CC[C@H](n2cc(NC(=O)c3cnn4ccc(N5CCOCC5)nc34)c(C(F)F)n2)CC1)C1CCN(Cc2cccc3c2n(C)c(=O)n3C2CCC(=O)NC2=O)CC1` (some centres unmarked) [I-213] are above 1000 nM and below 10 nM.
For the compound `CN(CCCOCCCNc1cccc2c1C(=O)N(C1CCC(=O)NC1=O)C2=O)C[C@H]1CC[C@H](n2cc(NC(=O)c3coc(-c4ccnc(N5CCOCC5)c4)n3)c(C(F)F)n2)CC1` (some centres unmarked) [I-397], in assay [1], the IC50 fell in the range of 50 to 100 nM. The DC50 in assay [2] (setting [3]) and in assay [2] (setting [4]) was 100 to 1000 nM each time.
As to `CN(Cc1ccc(OCCCNc2cccc3c2C(=O)N(C2CCC(=O)NC2=O)C3=O)nc1)C[C@H]1CC[C@H](n2cc(NC(=O)c3cnn4ccc(N5CCOCC5)nc34)c(C(F)F)n2)CC1` (some centres unmarked) [I-477, N-(3-(difluoromethyl)-1-((1r,4r)-4-((((6-(3-((2-(2,6-dioxopiperidin-3-yl)-1,3-dioxoisoindolin-4-yl)amino)propoxy)pyridin-3-yl)methyl)(methyl)amino)methyl)cyclohexyl)-1H-pyrazol-4-yl)-5-morpholinopyrazolo[1,5-a] pyrimidine-3-carboxamide], the IC50 in assay [1] fell in the range of 500 to 1000 nM. The DC50 in assay [2] (setting [5]) and in assay [2] (setting [6]) was 10 to 100 nM throughout.
Regarding `Cn1c(=O)n(C2CCC(=O)NC2=O)c2cccc(CCCOC3CCN(C[C@H]4CC[C@H](n5cc(NC(=O)c6cnn7ccc(N[C@@H]8CCCC[C@@H]8O)nc67)c(C(F)(F)F)n5)CC4)CC3)c21` (some centres unmarked) [I-153], the half-inhibitory concentration (IC50) in assay [1] was above 1000 nM. For the same compound, the DC50 in assay [2] (setting [3]) was 10 to 100 nM.
For the compound `CN1C(=O)CCC(N2C(=O)c3cccc(NCCCOCCCS(=O)(=O)N(C)C(=O)[C@H]4CC[C@H](n5cc(NC(=O)c6cnn7ccc(N8C[C@H]9C[C@@H]8CO9)nc67)c(C(F)F)n5)CC4)c3C2=O)C1=O` (stereo in doubt) [I-490, N-[3-(difluoromethyl)-1-[4-[methyl-[3-[3-[[2-(1-methyl-2,6-dioxo-3-piperidyl)-1,3-dioxo-isoindolin-4-yl]amino]propoxy]propylsulfonyl]carbamoyl]cyclohexyl]pyrazol-4-yl]-5-(2-oxa-5-azabicyclo [2.2.1]heptan-5-yl)pyrazolo [1,5-a]pyrimidine-3-carboxamide], the IC50 in assay [1] was above 1000 nM. Further, the figures for the 50% degradation concentration (DC50) in assay [2] (setting [5]) and in assay [2] (setting [6]) were 100 to 1000 nM and above 1000 nM, respectively.
With `CN(C[C@H]1CC[C@H](n2cc(NC(=O)c3coc(-c4ccnc(NCC5CC5)c4)n3)c(C(F)F)n2)CC1)C1CCN(Cc2cccc3c2C(=O)N(C2CCC(=O)NC2=O)C3=O)CC1` (some centres unmarked) [I-169], the concentration for half-maximal inhibition (IC50) in assay [1] is above 1000 nM. For the same compound, in assay [2] (setting [3]), the half-maximal degradation concentration (DC50) is below 10 nM.
In the case of `CN(CCCN1CCO[C@H](CNc2cccc3c2C(=O)N(C2CCC(=O)NC2=O)C3=O)C1)C[C@H]1CC[C@H](n2cc(NC(=O)c3cnn4ccc(N5C[C@H]6C[C@@H]5CO6)nc34)c(C(F)F)n2)CC1` (some centres unmarked) [I-475], in assay [1], the IC50 is below 50 nM. Moreover, the half-maximal degradation concentration (DC50) in assay [2] (setting [5]) is 10 to 100 nM; in assay [2] (setting [6]), below 10 nM.
